This assay has as its target T1, Atm1p (Saccharomyces cerevisiae, UniProt P40416).
T1 sequence (P40416 27-690): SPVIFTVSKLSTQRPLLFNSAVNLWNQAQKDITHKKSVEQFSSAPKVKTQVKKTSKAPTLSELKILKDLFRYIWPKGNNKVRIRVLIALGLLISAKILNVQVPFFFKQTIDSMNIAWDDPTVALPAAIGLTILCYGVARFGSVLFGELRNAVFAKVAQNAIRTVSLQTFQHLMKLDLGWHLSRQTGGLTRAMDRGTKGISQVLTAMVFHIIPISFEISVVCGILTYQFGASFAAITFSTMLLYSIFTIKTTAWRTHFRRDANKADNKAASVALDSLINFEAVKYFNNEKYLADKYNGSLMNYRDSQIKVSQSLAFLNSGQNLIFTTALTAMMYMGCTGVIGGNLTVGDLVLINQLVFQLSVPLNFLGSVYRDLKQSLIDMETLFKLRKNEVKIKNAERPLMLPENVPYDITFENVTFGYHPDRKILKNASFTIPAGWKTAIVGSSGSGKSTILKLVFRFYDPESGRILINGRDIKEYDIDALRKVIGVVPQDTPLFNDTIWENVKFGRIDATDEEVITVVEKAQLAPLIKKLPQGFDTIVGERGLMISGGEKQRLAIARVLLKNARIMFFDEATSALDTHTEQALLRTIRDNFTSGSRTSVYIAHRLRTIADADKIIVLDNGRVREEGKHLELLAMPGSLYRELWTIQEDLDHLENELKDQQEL
The experiment in a line: titration of labeled cluster to Atm1p. Format: binding. The settings on record: labelled compound.

“fluorescein-labeled glutathione [2Fe-2S] cluster”: the Kd was determined as 118 ± 11 µM.

As usually defined, the Kd is the equilibrium constant for the complex coming apart. Low values mean higher affinity, high ones lower affinity.

(Values after paper PMC4522903 (Chemical communications (Cambridge, England), 2015).)
